Experiment [1] has as its target Cyclin-dependent kinase 3 (Homo sapiens) (UniProt Q00526). Description: Selectivity interaction (KinomeScan (DiscoverX)) EUB0001079a CDK3. To be noted: at 1 µM.
Experiment [2] deals with STE20/SPS1-related proline-alanine-rich protein kinase (Homo sapiens) (UniProt Q9UEW8). Description: Selectivity interaction (KinomeScan (DiscoverX)) EUB0001079a STK39. To be noted: at 1 µM.
Experiment [3] concerns the target Histone-lysine N-methyltransferase SUV39H2 (Homo sapiens) (UniProt Q9H5I1). Nature of the experiment: Selectivity interaction (Methyltransferase screen (Scintillation proximity assays)) EUB0000255b SUV39H2.
In experiment [4] the target is T1, Serine/threonine-protein kinase haspin (Homo sapiens) (UniProt Q8TF76).
T1 sequence (whole entry): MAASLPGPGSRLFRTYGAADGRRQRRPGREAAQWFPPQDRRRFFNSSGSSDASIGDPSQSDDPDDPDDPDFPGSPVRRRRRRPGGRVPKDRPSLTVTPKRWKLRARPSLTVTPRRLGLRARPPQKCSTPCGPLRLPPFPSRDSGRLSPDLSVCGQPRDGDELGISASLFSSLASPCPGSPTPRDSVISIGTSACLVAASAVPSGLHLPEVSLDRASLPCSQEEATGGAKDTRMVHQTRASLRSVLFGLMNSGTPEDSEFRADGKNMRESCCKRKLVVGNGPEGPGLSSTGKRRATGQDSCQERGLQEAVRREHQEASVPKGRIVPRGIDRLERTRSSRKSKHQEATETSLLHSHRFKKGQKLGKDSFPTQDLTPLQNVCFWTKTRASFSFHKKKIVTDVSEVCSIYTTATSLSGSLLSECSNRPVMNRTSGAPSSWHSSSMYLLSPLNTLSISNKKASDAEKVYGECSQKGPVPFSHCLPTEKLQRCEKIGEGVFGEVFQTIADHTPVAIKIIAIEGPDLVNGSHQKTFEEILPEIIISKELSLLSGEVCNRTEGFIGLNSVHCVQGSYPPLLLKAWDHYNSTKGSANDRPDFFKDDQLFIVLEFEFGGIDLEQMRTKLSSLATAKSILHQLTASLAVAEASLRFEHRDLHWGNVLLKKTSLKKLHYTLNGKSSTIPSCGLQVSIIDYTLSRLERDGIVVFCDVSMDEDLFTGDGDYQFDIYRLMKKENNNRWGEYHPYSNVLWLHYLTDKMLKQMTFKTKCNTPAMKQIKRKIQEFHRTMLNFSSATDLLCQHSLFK
Nature of the experiment: Selectivity interaction (Adapta Assay) EUB0001632a GSG2. The conditions noted are these: at 10 µM.

Experiment [5] has as its target T2, Myosin-IIIb (Homo sapiens) (UniProt Q8WXR4).
T2 sequence (whole entry): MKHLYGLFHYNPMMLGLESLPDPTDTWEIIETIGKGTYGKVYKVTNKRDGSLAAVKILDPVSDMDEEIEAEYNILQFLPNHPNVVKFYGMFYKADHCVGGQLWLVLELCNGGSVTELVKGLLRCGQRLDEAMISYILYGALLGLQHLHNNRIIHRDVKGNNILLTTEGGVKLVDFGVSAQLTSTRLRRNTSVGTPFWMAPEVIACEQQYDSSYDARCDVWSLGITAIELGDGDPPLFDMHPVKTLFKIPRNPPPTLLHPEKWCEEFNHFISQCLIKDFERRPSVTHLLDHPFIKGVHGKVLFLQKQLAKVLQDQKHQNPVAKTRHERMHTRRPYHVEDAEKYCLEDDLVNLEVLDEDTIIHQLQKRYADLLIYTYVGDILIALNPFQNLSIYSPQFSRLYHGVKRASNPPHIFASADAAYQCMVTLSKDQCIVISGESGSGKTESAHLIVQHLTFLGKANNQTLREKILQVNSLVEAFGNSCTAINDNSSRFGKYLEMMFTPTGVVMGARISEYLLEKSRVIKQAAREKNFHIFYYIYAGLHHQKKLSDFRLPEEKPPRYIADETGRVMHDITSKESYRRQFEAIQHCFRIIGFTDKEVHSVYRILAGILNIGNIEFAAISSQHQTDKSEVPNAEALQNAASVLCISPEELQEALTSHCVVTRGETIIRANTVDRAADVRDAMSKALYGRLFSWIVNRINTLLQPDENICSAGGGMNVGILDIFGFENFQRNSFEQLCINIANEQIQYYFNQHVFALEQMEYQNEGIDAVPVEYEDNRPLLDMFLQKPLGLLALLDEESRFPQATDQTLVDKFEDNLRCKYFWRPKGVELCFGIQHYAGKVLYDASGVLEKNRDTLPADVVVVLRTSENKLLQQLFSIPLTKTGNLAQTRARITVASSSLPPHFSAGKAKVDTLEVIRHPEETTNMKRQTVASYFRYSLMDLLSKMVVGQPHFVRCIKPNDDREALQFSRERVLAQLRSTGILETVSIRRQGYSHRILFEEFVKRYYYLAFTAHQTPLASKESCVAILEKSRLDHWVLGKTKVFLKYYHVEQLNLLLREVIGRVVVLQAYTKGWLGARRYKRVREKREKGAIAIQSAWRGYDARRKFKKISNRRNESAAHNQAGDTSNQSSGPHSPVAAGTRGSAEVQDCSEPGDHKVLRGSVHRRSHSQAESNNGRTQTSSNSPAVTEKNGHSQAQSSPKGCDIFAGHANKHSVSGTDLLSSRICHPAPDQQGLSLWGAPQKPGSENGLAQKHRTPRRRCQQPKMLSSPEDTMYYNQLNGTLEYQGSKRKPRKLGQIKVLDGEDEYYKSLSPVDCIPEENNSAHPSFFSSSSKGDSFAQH
Nature of the experiment: Selectivity interaction (KinomeScan (DiscoverX)) EUB0000607a MYO3B. To be noted: at 10 µM.

In experiment [6] the target is Fibroblast growth factor receptor 4 (Homo sapiens, UniProt P22455). Description: Selectivity interaction (KinomeScan (DiscoverX)) EUB0000229b FGFR4. To be noted: at 10 µM.
Experiment [7] addresses Tyrosine-protein kinase receptor Tie-1 (Homo sapiens) (UniProt P35590). The conditions noted are these: at 10 µM.

The record followed here is ChEMBL document CHEMBL5465560, “Selectivity Literature for EUbOPEN Chemogenomic Library” (2024).

Sequence of Histone-lysine N-methyltransferase SUV39H2 (Homo sapiens) (Q9H5I1 whole entry): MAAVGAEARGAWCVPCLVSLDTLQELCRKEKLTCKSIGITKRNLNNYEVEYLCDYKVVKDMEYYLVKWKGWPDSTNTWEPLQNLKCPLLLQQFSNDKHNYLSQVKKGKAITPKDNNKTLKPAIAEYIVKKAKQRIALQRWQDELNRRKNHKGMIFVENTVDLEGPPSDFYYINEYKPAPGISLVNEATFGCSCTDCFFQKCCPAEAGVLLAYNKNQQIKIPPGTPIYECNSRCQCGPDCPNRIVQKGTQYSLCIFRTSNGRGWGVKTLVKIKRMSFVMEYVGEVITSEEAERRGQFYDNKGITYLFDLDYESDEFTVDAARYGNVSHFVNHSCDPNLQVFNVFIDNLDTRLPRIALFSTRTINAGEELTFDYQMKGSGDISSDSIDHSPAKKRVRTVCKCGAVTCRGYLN
Sequence of Fibroblast growth factor receptor 4 (P22455 22-802 limits assumed): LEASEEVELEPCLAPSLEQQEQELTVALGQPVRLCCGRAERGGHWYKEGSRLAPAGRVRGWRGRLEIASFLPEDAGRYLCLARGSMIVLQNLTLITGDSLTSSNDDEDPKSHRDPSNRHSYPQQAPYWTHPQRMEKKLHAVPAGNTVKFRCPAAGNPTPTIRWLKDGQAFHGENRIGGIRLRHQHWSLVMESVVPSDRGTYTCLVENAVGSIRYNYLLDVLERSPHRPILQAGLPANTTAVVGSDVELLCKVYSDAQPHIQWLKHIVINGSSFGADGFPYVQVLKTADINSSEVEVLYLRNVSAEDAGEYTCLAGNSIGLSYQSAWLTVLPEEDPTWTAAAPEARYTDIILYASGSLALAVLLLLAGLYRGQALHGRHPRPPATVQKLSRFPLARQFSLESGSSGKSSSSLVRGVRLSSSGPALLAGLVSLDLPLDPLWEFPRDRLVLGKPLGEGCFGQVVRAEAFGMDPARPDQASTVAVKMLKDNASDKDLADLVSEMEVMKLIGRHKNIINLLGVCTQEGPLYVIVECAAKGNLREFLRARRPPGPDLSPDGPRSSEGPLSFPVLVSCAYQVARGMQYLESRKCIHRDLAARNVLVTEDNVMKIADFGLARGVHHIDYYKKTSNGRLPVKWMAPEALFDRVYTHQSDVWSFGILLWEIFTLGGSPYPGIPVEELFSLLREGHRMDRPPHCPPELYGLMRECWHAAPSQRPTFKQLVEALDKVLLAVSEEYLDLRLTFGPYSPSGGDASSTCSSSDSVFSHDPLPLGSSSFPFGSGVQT
Sequence of Cyclin-dependent kinase 3 (Homo sapiens) (Q00526 whole entry, looked up): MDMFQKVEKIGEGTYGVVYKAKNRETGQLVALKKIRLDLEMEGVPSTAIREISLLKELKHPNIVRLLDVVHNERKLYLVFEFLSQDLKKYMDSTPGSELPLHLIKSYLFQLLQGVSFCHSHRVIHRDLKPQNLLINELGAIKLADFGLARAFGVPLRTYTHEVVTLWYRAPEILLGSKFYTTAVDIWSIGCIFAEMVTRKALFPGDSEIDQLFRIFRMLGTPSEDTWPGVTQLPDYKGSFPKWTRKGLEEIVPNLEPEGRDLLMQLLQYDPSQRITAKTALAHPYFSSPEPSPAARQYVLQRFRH
Sequence of Tyrosine-protein kinase receptor Tie-1 (Homo sapiens) (P35590 whole entry): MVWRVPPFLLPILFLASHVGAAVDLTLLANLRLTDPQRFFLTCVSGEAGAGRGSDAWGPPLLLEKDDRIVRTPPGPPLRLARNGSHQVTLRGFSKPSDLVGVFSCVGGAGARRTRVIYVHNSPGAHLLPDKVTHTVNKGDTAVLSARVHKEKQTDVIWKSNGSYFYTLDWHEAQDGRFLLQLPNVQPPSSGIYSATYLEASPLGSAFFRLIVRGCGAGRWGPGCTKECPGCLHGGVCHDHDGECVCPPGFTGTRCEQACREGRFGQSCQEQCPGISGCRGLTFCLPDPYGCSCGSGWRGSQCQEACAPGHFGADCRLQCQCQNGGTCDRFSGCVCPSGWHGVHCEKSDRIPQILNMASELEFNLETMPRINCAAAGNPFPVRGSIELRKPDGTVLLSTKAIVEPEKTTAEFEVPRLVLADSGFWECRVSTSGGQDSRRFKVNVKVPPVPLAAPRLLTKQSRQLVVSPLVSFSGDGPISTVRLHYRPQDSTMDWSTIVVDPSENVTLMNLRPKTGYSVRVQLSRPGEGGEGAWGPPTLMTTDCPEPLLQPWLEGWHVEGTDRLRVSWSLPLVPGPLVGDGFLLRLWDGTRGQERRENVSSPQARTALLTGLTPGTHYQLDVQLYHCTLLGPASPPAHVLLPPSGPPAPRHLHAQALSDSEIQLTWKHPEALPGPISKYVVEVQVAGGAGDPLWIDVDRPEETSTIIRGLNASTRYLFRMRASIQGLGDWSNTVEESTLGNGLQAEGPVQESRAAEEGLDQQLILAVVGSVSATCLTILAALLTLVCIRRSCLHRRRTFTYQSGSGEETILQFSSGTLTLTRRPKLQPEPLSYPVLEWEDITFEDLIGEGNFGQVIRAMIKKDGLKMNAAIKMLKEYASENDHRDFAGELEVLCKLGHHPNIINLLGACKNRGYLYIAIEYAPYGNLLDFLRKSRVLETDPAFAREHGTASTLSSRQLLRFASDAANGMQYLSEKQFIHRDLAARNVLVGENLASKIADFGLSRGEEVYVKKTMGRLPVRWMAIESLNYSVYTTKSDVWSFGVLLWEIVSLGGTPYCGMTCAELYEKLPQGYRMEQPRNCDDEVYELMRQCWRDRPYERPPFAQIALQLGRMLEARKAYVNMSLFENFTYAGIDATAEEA

In the case of `Nc1cnc(N2CCc3cc(S(=O)(=O)Nc4c(F)cc(Cl)cc4F)cc(N4CCCC4=O)c32)nc1` [TP-020n], the % of control in experiment [1] and in experiment [2] was 100% throughout. `COCCN1CCC(c2cc(CN(C)C(=O)c3cccc(Oc4ccccc4)c3)ccn2)CC1`: the % activity in experiment [3] (at 1 µM) was greater than 95%; in experiment [3] (at 10 µM), greater than 90%.

In experiment [4], `Cn1cc(-n2cnc3c(NCc4nc5cc(Cl)c(Cl)cc5[nH]4)nc(N4CCOCC4)nc32)cn1` showed a % of inhibition of 45%.

In experiment [5], `CNC(=O)Nc1ccc(-c2nc(N3CC4CCC(C3)O4)c3cnn(C4CCC5(CC4)OCCO5)c3n2)cc1` gave a % of control of 91%. As for `COc1cc(N(C)c2ccnc3ccc(C(F)(F)F)cc23)cc(OC)c1OC`, in experiment [6], the % binding is 100%.

With `COCC(=O)NC/C=C/c1ccc2ncnc(Nc3ccc(Oc4ccc(C)nc4)c(C)c3)c2c1` [CP-724714], the % of control in experiment [7] is 100%.
